The test system of one data set is normotensive rabbits. The experiment in a line: IOP study in rabbits. Particulars: 2.5 μg, mean ± SE, n = 5-6. Type of data set: in vivo, rabbit. The protocol:
The IOP lowering effect of the prodrug was also compared to the effect of MPV-2426.
To perform the IOP test, a rabbit was placed in a plastic restraining box located in a quiet room. A single drop (25 μl) of the test solution was instilled unilaterally into its left eye on the upper corneoscleral limbus. During installation, the upper eyelid was pulled slightly away from the globe. IOP was measured using a BioRad (Cambridge, Mass.) Digilab Modular One Pneumatonometer. Before each measurement one or two drops of oxybuprocaine (0.06%) were applied to the cornea before tonometry to eliminate discomfort. The upper and lower eyelids were then gently retracted, and the applanation sensor was brought into contact with the center of the cornea. For each
determination at least two readings were taken from each treated (ipsilateral) and untreated (contralateral) eye, and the mean of these readings was used. IOP of the rabbits was measured at 2, 1, and 0 h before and at 0.5, 1, 2, 3, 4 and 5 h after eyedrop administration. IOP at the time of eyedrop administration (0 h) was used as a baseline value. All studies were set up using a masked and randomized crossover design. At least 72 h washout time was allowed for each rabbit between each dosing. Results

Data set [1] in a line: Chemical stability in phosphate buffer at 37° C. Type of data set: physicochemical. The protocol:
An appropriate amount of the test compound (initial concentrations were 0.1-0.4 mM) was dissolved in pre-heated phosphate buffer (0.16 M, μ=0.5, pH 7.4 or pH 5.0). The solution was placed in a thermostated water bath at 37° C. and aliquots were taken at suitable intervals and analyzed by HPLC to determine the degradation rate of the compound. The pseudo-first-order half-life (t1/2) was calculated from the linear slopes of semi-logarithmic plots of remaining compound over time.

Another data set concerns serum esterases. The experiment in a line: Enzymatic hydrolysis in 80% human serum. The conditions noted are these: pH 7.4, 37° C., read-out: t1/2 (min) 80% human serum (pH 7.4). Type of data set: in vitro ADME. The protocol:
To exert the pharmacological effect in the body, a prodrug should be enzymatically degraded to the parent drug. Therefore, the susceptibility of the compounds to serum esterases was evaluated.
An appropriate amount of the test compound was dissolved in one volume (e.g. 1 ml) of phosphate buffer (0.16 M, μ=0.5, pH 7.4) at 37° C. Four volumes (e.g. 4 ml) of pre-heated human serum were added and the solutions were mixed in a water bath at 37° C. (initial concentrations were 0.2-0.5 mM). At suitable intervals, 300 μl aliquots were withdrawn and deproteinated with 600 μl of acetonitrile. After mixing and centrifugation, 600 μl of the supernatant was evaporated to dryness under a stream of air at 40° C. The residue was re-dissolved in 300 μl of the mobile phase and analyzed by HPLC. The pseudo-first-order half-life (t1/2) was calculated from the linear slopes of semi-logarithmic plots of remaining compound over time. Also the formation of the parent drug was determined.

[2] abbreviates: phosphate buffer pH 5.0, 37° C., read-out: t1/2 (d) phosphate buffer pH 5.0 (converted).
Where [3] appears, read: phosphate buffer pH 7.4, 37° C., read-out: t1/2 (d) phosphate buffer pH 7.4 (converted).

Read-outs that look alike come from different tables or passages of the source.

For the compound `Cl.Oc1ccc2c(c1)C(Cc1c[nH]cn1)CC2` (centres unmarked) [MPV-2426, 4-(6-hydroxyindan-1-ylmethyl)-1H-imidazol-1-ium chloride, reference compound], the “Intraocular pressure (IOP) change” value with normotensive rabbits (treated eye, 0 h) is reported as 0.0 ± 0.0 mmHg; in the data set on normotensive rabbits (treated eye, 0.5 h), 0.1 ± 1.0 mmHg; in the data set on normotensive rabbits (treated eye, 1 h), −2.6 ± 1.1 mmHg; in the data set with normotensive rabbits (treated eye, 2 h), −3.0 ± 0.7 mmHg; in the data set on normotensive rabbits (treated eye, 3 h), −2.4 ± 0.5 mmHg; in the data set on normotensive rabbits (treated eye, 4 h), −0.4 ± 1.2 mmHg. The “Intraocular pressure (IOP) change” value is recorded as −0.1 ± 0.8 mmHg in the data set on normotensive rabbits (treated eye, 5 h); 0.0 ± 0.0 mmHg with normotensive rabbits (untreated eye, 0 h); 0.3 ± 1.0 mmHg in the data set with normotensive rabbits (untreated eye, 0.5 h); −1.3 ± 0.7 mmHg in the data set on normotensive rabbits (untreated eye, 1 h); −1.6 ± 0.9 mmHg in the data set with normotensive rabbits (untreated eye, 2 h); −1.7 ± 0.6 mmHg with normotensive rabbits (untreated eye, 3 h). The “Intraocular pressure (IOP) change” value in the data set on normotensive rabbits (untreated eye, 4 h) amounted to 0.4 ± 1.1 mmHg; with normotensive rabbits (untreated eye, 5 h) it was 0.4 ± 1.1 mmHg.
Regarding `CC(=O)Oc1ccc2c(c1)C(Cc1c[nH]cn1)CC2.Cl` (centres unmarked) [example 1, 4-(6-Acetoxyindan-1-ylmethyl)-1H-imidazol-1-ium chloride], the half-life in data set [1] (setting [2]) was 23 days; in data set [1] (setting [3]) it was 1.1 days; in the data set on serum esterases, 0.18 min.
As for `CCCC(=O)Oc1ccc2c(c1)C(Cc1c[nH]cn1)CC2.Cl` (centres unmarked) [example 2, 4-(6-Butyryloxyindan-1-ylmethyl)-1H-imidazol-1-ium chloride], the half-life in data set [1] (setting [2]) is 49 days; in data set [1] (setting [3]), 2.5 days; in the data set with serum esterases it was 0.2 min.

The values above are taken from US7759496B2, “Imidazole derivatives having affinity for alpha 2 receptors activity” (Orion Corporation, priority 2002, dated 2010).
